Measured values published in patent US20200017496A1 (priority 2017, published 2020).

What was measured:
Type in all cases: cell-based
[1] = system: Escherichia coli (ECO) isolates; assay: MIC of compounds alone and combined with antibacterials, broth microdilution (CLSI); conditions: alone
In short: (§1)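 Inoculum 5·10^5 CFU/mL (final), log phase, ca-MHB; 16-20 h, 35° C, ambient air. MIC = lowest conc. with no visible growth; ATB MIC read at each compound level.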

[2] = system: Serratia marcescens (SMA) isolates; assay: as above
In short: as §1

[3] = system: Enterobacter aerogenes (EAE) isolates; assay: as above; conditions: alone
In short: as §1

[4] = system: Morganella morganii (MMO) isolates; assay: as above; conditions: alone
In short: as §1

[5] = system: Providencia stuartii (PST) isolates; assay: as above; conditions: alone
In short: as §1

[6] = system: Proteus mirabilis (PMI) isolates; assay: microbe, parasite or virus in culture; conditions: alone
In short: as §1

Q: Which MIC ([1]; ECO 4133) does the source give for `NC(=O)[C@@H]1CC[C@@H]2CN1C(=O)N2OC(F)(F)C(=O)[O-].[Na+]` [EA1] here?
A: 16 µg/mL

Q: What about the MIC ([1]; ECO 5302) of the same compound?
A: 16 µg/mL

Q: What about the MIC ([1]; ECO 131119) of the same compound?
A: 32 µg/mL

Q: And the MIC ([1]; ECO 180070)?
A: >32 µg/mL

Q: What about the MIC ([1]; ECO 190314) of the same compound?
A: >32 µg/mL

Q: What about the MIC ([1]; ECO 190317) of the same compound?
A: 16 µg/mL

Q: And the MIC ([1]; ECO 190457)?
A: 16 µg/mL

Q: And the MIC ([1]; ECO 190549)?
A: 16 µg/mL

Q: And the MIC ([1]; ECO 200159)?
A: 32 µg/mL

Q: What about the MIC ([1]; ECO 200259) of the same compound?
A: 16 µg/mL

Q: And the MIC ([1]; ECO 200344)?
A: >32 µg/mL

Q: What about the MIC ([1]; ECO 260096) of the same compound?
A: 16 µg/mL

Q: What about the MIC ([1]; ECO 260304) of the same compound?
A: 32 µg/mL

Q: What about the MIC ([1]; ECO 260508) of the same compound?
A: 16 µg/mL

Q: What about the MIC ([1]; ECO RGN238) of the same compound?
A: >32 µg/mL

Q: What about the MIC ([1]; ECO UFR15) of the same compound?
A: 32 µg/mL

Q: What about the MIC ([1]; ECO UFR16) of the same compound?
A: 16 µg/mL

Q: What about the MIC ([1]; ECO UFR17) of the same compound?
A: 16 µg/mL

Q: What about the MIC ([1]; ECO UFR18) of the same compound?
A: 16 µg/mL

Q: And the MIC ([1]; ECO UFR19)?
A: 16 µg/mL

Q: What about the MIC ([1]; ECO UFR20) of the same compound?
A: 64 µg/mL

Q: And the MIC ([1]; ECO UFR61O)?
A: 32 µg/mL

Q: And the MIC ([1]; ECO UFR62)?
A: 16 µg/mL

Q: What about the MIC ([1]; ECO UFR74) of the same compound?
A: >32 µg/mL

Q: What about the MIC ([1]; ECO UFR86) of the same compound?
A: 16 µg/mL

Q: What about the MIC ([1]; ECO UFR174) of the same compound?
A: 8 µg/mL

Q: And the MIC ([1]; ECO UFR175)?
A: 32 µg/mL

Q: And the MIC ([1]; ECO UFR176)?
A: 32 µg/mL

Q: What about the MIC ([1]; ECO UFR184) of the same compound?
A: 8 µg/mL

Q: And the MIC ([1]; ECO UFR185)?
A: 16 µg/mL

Q: And the MIC ([1]; ECO UFR186)?
A: >32 µg/mL

Q: And the MIC ([1]; ECO UFR187)?
A: >32 µg/mL

Q: What about the MIC ([1]; ECO UFR189) of the same compound?
A: 16 µg/mL

Q: What about the MIC ([1]; ECO UFR190) of the same compound?
A: 16 µg/mL

Q: And the MIC ([1]; ECO UFR191)?
A: 32 µg/mL

Q: What about the MIC ([1]; ECO UFR207) of the same compound?
A: 32 µg/mL

Q: And the MIC ([1]; ECO UFR208)?
A: >32 µg/mL

Q: What about the MIC ([1]; ECO UFR209) of the same compound?
A: 16 µg/mL

Q: And the MIC ([1]; ECO UFR210)?
A: 16 µg/mL

Q: And the MIC ([1]; ECO UFR211)?
A: >32 µg/mL

Q: And the MIC ([1]; ECO UFR212)?
A: 16 µg/mL

Q: And the MIC ([1]; ECO UFR218)?
A: 16 µg/mL

Q: And the MIC ([2]; SMA UFR30, alone)?
A: >32 µg/mL

Q: And the MIC ([2]; SMA UFR134, alone)?
A: >32 µg/mL

Q: What about the MIC ([2]; SMA UFR135, alone) of the same compound?
A: >32 µg/mL

Q: And the MIC ([2]; SMA UFR136, alone)?
A: >32 µg/mL

Q: And the MIC ([2]; SMA UFR137, alone)?
A: >32 µg/mL

Q: And the MIC ([2]; SMA UFR138, alone)?
A: >32 µg/mL

Q: What about the MIC ([2]; SMA UFR139, alone) of the same compound?
A: >32 µg/mL

Q: What about the MIC ([2]; SMA UFR141, alone) of the same compound?
A: >32 µg/mL

Q: What about the MIC ([2]; SMA UFR142, alone) of the same compound?
A: >32 µg/mL

Q: What about the MIC ([2]; SMA UFR143, alone) of the same compound?
A: 64 µg/mL

Q: What about the MIC ([2]; SMA UFR239, alone) of the same compound?
A: >32 µg/mL

Q: What about the MIC ([2]; strain SMA UFR238, compound alone) of the same compound?
A: >32 µg/mL

Q: And the MIC ([3]; EAE 49469)?
A: >32 µg/mL

Q: And the MIC ([3]; EAE 200261)?
A: >32 µg/mL

Q: And the MIC ([3]; EAE UFR199)?
A: 128 µg/mL

Q: What about the MIC ([3]; EAE UFR201) of the same compound?
A: >32 µg/mL

Q: What about the MIC ([3]; EAE UFR202) of the same compound?
A: >32 µg/mL

Q: What about the MIC ([3]; EAE UFR213) of the same compound?
A: >32 µg/mL

Q: What about the MIC ([4]; MMO 200321) of the same compound?
A: >32 µg/mL

Q: What about the MIC ([4]; MMO UFR144) of the same compound?
A: >32 µg/mL

Q: What about the MIC ([4]; MMO UFR240) of the same compound?
A: >32 µg/mL

Q: And the MIC ([4]; MMO UFR241)?
A: >32 µg/mL

Q: What about the MIC ([4]; MMO UFR242) of the same compound?
A: 128 µg/mL

Q: What about the MIC ([4]; MMO UFR243) of the same compound?
A: >32 µg/mL

Q: What about the MIC ([4]; MMO UFR244) of the same compound?
A: >32 µg/mL

Q: And the MIC ([4]; MMO UFR245)?
A: >32 µg/mL

Q: What about the MIC ([4]; MMO UFR246) of the same compound?
A: >32 µg/mL

Q: What about the MIC ([4]; MMO UFR247) of the same compound?
A: 64 µg/mL

Q: What about the MIC ([5]; PST UFR94) of the same compound?
A: >32 µg/mL

Q: What about the MIC ([5]; PST UFR95) of the same compound?
A: >32 µg/mL

Q: What about the MIC ([5]; PST UFR235) of the same compound?
A: 16 µg/mL

Q: And the MIC ([6]; PMI UFR82)?
A: >32 µg/mL

Q: What about the MIC ([6]; PMI UFR120) of the same compound?
A: >32 µg/mL

Q: And the MIC ([6]; PMI UFR121)?
A: >32 µg/mL

Q: And the MIC ([6]; PMI UFR122)?
A: >32 µg/mL

Q: And the MIC ([6]; PMI UFR123)?
A: >32 µg/mL

Q: And the MIC ([6]; PMI UFR124)?
A: >32 µg/mL

Q: And the MIC ([6]; PMI UFR125)?
A: >32 µg/mL

Q: What about the MIC ([6]; PMI UFR126) of the same compound?
A: >32 µg/mL

Q: And the MIC ([6]; PMI UFR127)?
A: >32 µg/mL

Q: What about the MIC ([6]; PMI UFR129) of the same compound?
A: >32 µg/mL

Q: What about the MIC ([6]; PMI UFR130) of the same compound?
A: >32 µg/mL

Q: What about the MIC ([6]; PMI UFR237) of the same compound?
A: >32 µg/mL
